# Legend:
# MV4-11 [1] = test: Antiproliferative activity against human MV4-11 cells incubated for 72 hrs by Cell Counting Kit-8 assay; assay type: functional, cell-based; details: MV4-11, 72 h
# MOLM-13 [2] = test: Antiproliferative activity against human sunitinib-resistant MOLM-13 cells at 37 nM incubated for 72 hrs by CCK8 assay relative to control; assay type: functional
# MOLM-13 [3] = test: Antiproliferative activity against human sunitinib-resistant MOLM-13 cells at 4 nM incubated for 72 hrs by CCK8 assay relative to control; assay type: functional
# MOLM-13 [4] = test: Antiproliferative activity against human sunitinib-resistant MOLM-13 cells at 1 nM incubated for 72 hrs by CCK8 assay relative to control; assay type: functional
# MOLM-13 [5] = test: Antiproliferative activity against human quizartinib-resistant MOLM-13 cells at 1000 nM incubated for 72 hrs by CCK8 assay relative to control; assay type: functional
# MOLM-13 [6] = test: Antiproliferative activity against human quizartinib-resistant MOLM-13 cells at 111 nM incubated for 72 hrs by CCK8 assay relative to control; assay type: functional
# MOLM-13 [7] = test: Antiproliferative activity against human quizartinib-resistant MOLM-13 cells at 37 nM incubated for 72 hrs by CCK8 assay relative to control; assay type: functional
# MOLM-13 [8] = test: Antiproliferative activity against human quizartinib-resistant MOLM-13 cells at 12 nM incubated for 72 hrs by CCK8 assay relative to control; assay type: functional
# MV4-11 [9] = test: Induction of cell cycle arrest in human MV4-11 cells assessed as accumulation at S phase at 1 nM incubated for 24 hrs by flow cytometry (reference value: 16.31%); assay type: functional
# MV4-11 [10] = test: Induction of cell cycle arrest in human MV4-11 cells assessed as accumulation at G2/M phase at 1 nM incubated for 24 hrs by flow cytometry (reference value: 7.29%); assay type: functional
# MV4-11 [11] = test: Induction of cell cycle arrest in human MV4-11 cells assessed as accumulation at G1 phase at 10 nM incubated for 24 hrs by flow cytometry (reference value: 64.73%); assay type: functional
# MV4-11 [12] = test: Induction of cell cycle arrest in human MV4-11 cells assessed as accumulation at S phase at 10 nM incubated for 24 hrs by flow cytometry (reference value: 16.31%); assay type: functional
# MV4-11 [13] = test: Induction of cell cycle arrest in human MV4-11 cells assessed as accumulation at G2/M phase at 10 nM incubated for 24 hrs by flow cytometry (reference value: 7.29%); assay type: functional
# MV4-11 [14] = test: Induction of cell cycle arrest in human MV4-11 cells assessed as accumulation at G1 phase at 100 nM incubated for 24 hrs by flow cytometry (reference value: 64.73%); assay type: functional
# MV4-11 [15] = test: Induction of cell cycle arrest in human MV4-11 cells assessed as accumulation at S phase at 100 nM incubated for 24 hrs by flow cytometry (reference value: 16.31%); assay type: functional
# MOLM-13 [16] = test: Induction of cell cycle arrest in human MOLM-13 cells assessed as accumulation at sub-G1 phase at 1 nM incubated for 24 hrs by flow cytometry (reference value: 4.24%); assay type: functional
# MOLM-13 [17] = test: Induction of cell cycle arrest in human MOLM-13 cells assessed as accumulation at G1 phase at 1 nM incubated for 24 hrs by flow cytometry (reference value: 69.08%); assay type: functional
# MOLM-13 [18] = test: Induction of cell cycle arrest in human MOLM-13 cells assessed as accumulation at S phase at 1 nM incubated for 24 hrs by flow cytometry (reference value: 16.28%); assay type: functional
# MOLM-13 [19] = test: Induction of cell cycle arrest in human MOLM-13 cells assessed as accumulation at sub-G1 phase at 10 nM incubated for 24 hrs by flow cytometry (reference value: 4.24%); assay type: functional
# MOLM-13 [20] = test: Induction of cell cycle arrest in human MOLM-13 cells assessed as accumulation at S phase at 10 nM incubated for 24 hrs by flow cytometry (reference value: 16.28%); assay type: functional
# MOLM-13 [21] = test: Induction of cell cycle arrest in human MOLM-13 cells assessed as accumulation at G1 phase at 100 nM incubated for 24 hrs by flow cytometry (reference value: 69.08%); assay type: functional
# MV4-11 [22] = test: Induction of apoptosis in human MV4-11 cells assessed as viable cells at 1 nM incubated for 24 hrs by flow cytometry (reference value: 98.26%); assay type: functional; details: read-out: Activity
# MV4-11 [23] = test: Induction of apoptosis in human MV4-11 cells assessed as early apoptotic cells at 1 nM incubated for 24 hrs by flow cytometry (reference value: 0.31%); assay type: functional
# MV4-11 [24] = test: Induction of apoptosis in human MV4-11 cells assessed as late apoptotic cells at 1 nM incubated for 24 hrs by flow cytometry (reference value: 0.58%); assay type: functional
# MV4-11 [25] = test: Induction of apoptosis in human MV4-11 cells assessed as viable cells at 10 nM incubated for 24 hrs by flow cytometry (reference value: 98.86%); assay type: functional; details: read-out: Activity
# MV4-11 [26] = test: Induction of apoptosis in human MV4-11 cells assessed as early apoptotic cells at 10 nM incubated for 24 hrs by flow cytometry (reference value: 0.31%); assay type: functional
# MV4-11 [27] = test: Induction of apoptosis in human MV4-11 cells assessed as late apoptotic cells at 10 nM incubated for 24 hrs by flow cytometry (reference value: 0.58%); assay type: functional
# MV4-11 [28] = test: Induction of apoptosis in human MV4-11 cells assessed as necrotic cells at 10 nM incubated for 24 hrs by flow cytometry (reference value: 0.25%); assay type: functional
# MV4-11 [29] = test: Induction of apoptosis in human MV4-11 cells assessed as early apoptotic cells at 100 nM incubated for 24 hrs by flow cytometry (reference value: 0.31%); assay type: functional
# MV4-11 [30] = test: Induction of apoptosis in human MV4-11 cells assessed as necrotic cells at 100 nM incubated for 24 hrs by flow cytometry (reference value: 0.25%); assay type: functional
# MOLM-13 [31] = test: Induction of apoptosis in human MOLM-13 cells assessed as viable cells at 1 nM incubated for 24 hrs by flow cytometry (reference value: 92.83%); assay type: functional; details: read-out: Activity
# MOLM-13 [32] = test: Induction of apoptosis in human MOLM-13 cells assessed as late apoptotic cells at 1 nM incubated for 24 hrs by flow cytometry (reference value: 4.54%); assay type: functional
# MOLM-13 [33] = test: Induction of apoptosis in human MOLM-13 cells assessed as early apoptotic cells at 10 nM incubated for 24 hrs by flow cytometry (reference value: 2.18%); assay type: functional
# MOLM-13 [34] = test: Induction of apoptosis in human MOLM-13 cells assessed as late apoptotic cells at 10 nM incubated for 24 hrs by flow cytometry (reference value: 4.54%); assay type: functional
# MOLM-13 [35] = test: Induction of apoptosis in human MOLM-13 cells assessed as necrotic cells at 10 nM incubated for 24 hrs by flow cytometry (reference value: 0.45%); assay type: functional
# MOLM-13 [36] = test: Induction of apoptosis in human MOLM-13 cells assessed as viable cells at 100 nM incubated for 24 hrs by flow cytometry (reference value: 92.83%); assay type: functional; details: read-out: Activity
# MOLM-13 [37] = test: Induction of apoptosis in human MOLM-13 cells assessed as early apoptotic cells at 100 nM incubated for 24 hrs by flow cytometry (reference value: 2.18%); assay type: functional
# MOLM-13 [38] = test: Induction of apoptosis in human MOLM-13 cells assessed as late apoptotic cells at 100 nM incubated for 24 hrs by flow cytometry (reference value: 4.54%); assay type: functional
# MOLM-13 [39] = test: Induction of apoptosis in human MOLM-13 cells assessed as necrotic cells at 100 nM incubated for 24 hrs by flow cytometry (reference value: 0.45%); assay type: functional
Structure (SMILES),IC50 (MV4-11 [1]),Activity (MOLM-13 [2]),Activity (MOLM-13 [3]),Activity (MOLM-13 [4]),Activity (MOLM-13 [5]),Activity (MOLM-13 [6]),Activity (MOLM-13 [7]),Activity (MOLM-13 [8]),Activity (MV4-11 [9]),Activity (MV4-11 [10]),Activity (MV4-11 [11]),Activity (MV4-11 [12]),Activity (MV4-11 [13]),Activity (MV4-11 [14]),Activity (MV4-11 [15]),Activity (MOLM-13 [16]),Activity (MOLM-13 [17]),Activity (MOLM-13 [18]),Activity (MOLM-13 [19]),Activity (MOLM-13 [20]),other results
Cc1c(NC(=O)CCN2CCCC2)c[nH]c1/C=C1\C(=O)Nc2ccc(F)cc21,23.5 nM,4.7%,3.3%,-4.2%,60.3%,2.9%,3.8%,2.6%,11.6%,3.98%,66.28%,2.41%,2%,62.23%,4.06%,6.76%,68.95%,15.09%,30.16%,4.63%,Activity (MOLM-13 [21]): 47.75%; viability at 0.001 µM (MV4-11 [22]): 97.2%; Activity (MV4-11 [23]): 0.39%; Activity (MV4-11 [24]): 0.99%; viability at 0.01 µM (MV4-11 [25]): 88%; Activity (MV4-11 [26]): 3.5%; Activity (MV4-11 [27]): 6.55%; Activity (MV4-11 [28]): 1.93%; Activity (MV4-11 [29]): 17.98%; Activity (MV4-11 [30]): 1.57%; viability at 0.001 µM (MOLM-13 [31]): 91.8%; Activity (MOLM-13 [32]): 4.3%; Activity (MOLM-13 [33]): 22.66%; Activity (MOLM-13 [34]): 14.5%; Activity (MOLM-13 [35]): 0.52%; viability at 0.1 µM (MOLM-13 [36]): 43.8%; Activity (MOLM-13 [37]): 34.68%; Activity (MOLM-13 [38]): 20.79%; Activity (MOLM-13 [39]): 0.75%
CCN(CC)CCNC(=O)c1c(C)[nH]c(/C=C2\C(=O)Nc3ccc(F)cc32)c1C [SUNITINIB],31.5 nM,2.6%,0.9%,5.3%,26.6%,0.5%,-0.5%,-1.1%,13.27%,5.86%,68.1%,2.69%,2.53%,60.29%,3.91%,6.13%,65.44%,16.42%,24.17%,5.58%,Activity (MOLM-13 [21]): 41.02%; viability at 0.001 µM (MV4-11 [22]): 98.4%; Activity (MV4-11 [23]): 0.29%; Activity (MV4-11 [24]): 1.03%; viability at 0.01 µM (MV4-11 [25]): 89.4%; Activity (MV4-11 [26]): 2.79%; Activity (MV4-11 [27]): 6.58%; Activity (MV4-11 [28]): 1.22%; Activity (MV4-11 [29]): 9.64%; Activity (MV4-11 [30]): 1.71%; viability at 0.001 µM (MOLM-13 [31]): 92.5%; Activity (MOLM-13 [32]): 3.32%; Activity (MOLM-13 [33]): 19.36%; Activity (MOLM-13 [34]): 9.47%; Activity (MOLM-13 [35]): 0.4%; viability at 0.1 µM (MOLM-13 [36]): 44.3%; Activity (MOLM-13 [37]): 31.1%; Activity (MOLM-13 [38]): 23.49%; Activity (MOLM-13 [39]): 1.14%

# Source: ChEMBL document CHEMBL4823252 (J Med Chem, 2021)
